Tested on: acetylcholine receptors in the NMJ
Assay type: cell-based, human

α-bungarotoxin [BTX]
average number of spontaneous contractions after treatment: 0.17±0.17
average score (corrected fraction of effective light pulses), after treatment: 0.01±0.01
light-triggered and spontaneous contractions: completely stopped

— US20210179989A1, “SYSTEM AND METHODS FOR OPTOGENETIC EVALUATION OF HUMAN NEUROMUSCULAR FUNCTION” (priority 2018, published 2021)
